The source of these data is patent publication US20260207590A1, “CTPS1 INHIBITORS FOR USE IN THE TREATMENT OF CTPS2 DEFICIENT CANCER” (STEP PHARMA S.A.S., priority 2022, published 2026).

In one test the test system is human cancer cell lines. Description: Human cancer cell line viability with CTPS-IA (CellTiter-Glo, 72 hours), IC50 correlated with CTPS1/CTPS2 RNA expression. Type of test: cell-based. Conditions: all three cell line sets (19, 60, 103 lines); P-value>0.05 in all cases. From the text: CTPS2 expression levels were also found to correlate with IC50 values for CTPS-IA. […] A nonlinear regression model was used to calculate half maximal inhibitory concentration (IC50). CTPS1 and CTPS2 expression levels, measured by RNA abundance, were either generated by RNA sequencing or retrieved from the publicly available Cancer Cell Line Encyclopedia. In a set of 19 human cancer cell lines derived from haematological cancers, lower CTPS2 expression was associated with increased sensitivity to CTPS-IA (Pearson correlation r=0.50, P-value=0.0007). In a set of 60 human cancer cell lines covering common cancer types, lower CTPS2 expression was associated with increased sensitivity to CTPS-IA (Pearson correlation r=0.24, P-value=<0.0001). In an independent set of 103 human cancer cell lines covering common cancer types, lower CTPS2 expression was associated with increased sensitivity to CTPS-IA (Pearson correlation r=0.14, P-value=<0.0001).
In general terms: Cellular ATP, detected with luciferase, serves as a proxy for viable cell number.

For another test, the target named is T1, CTPS1 (Homo sapiens, UniProt P17812).
T1 sequence (P17812 1-591): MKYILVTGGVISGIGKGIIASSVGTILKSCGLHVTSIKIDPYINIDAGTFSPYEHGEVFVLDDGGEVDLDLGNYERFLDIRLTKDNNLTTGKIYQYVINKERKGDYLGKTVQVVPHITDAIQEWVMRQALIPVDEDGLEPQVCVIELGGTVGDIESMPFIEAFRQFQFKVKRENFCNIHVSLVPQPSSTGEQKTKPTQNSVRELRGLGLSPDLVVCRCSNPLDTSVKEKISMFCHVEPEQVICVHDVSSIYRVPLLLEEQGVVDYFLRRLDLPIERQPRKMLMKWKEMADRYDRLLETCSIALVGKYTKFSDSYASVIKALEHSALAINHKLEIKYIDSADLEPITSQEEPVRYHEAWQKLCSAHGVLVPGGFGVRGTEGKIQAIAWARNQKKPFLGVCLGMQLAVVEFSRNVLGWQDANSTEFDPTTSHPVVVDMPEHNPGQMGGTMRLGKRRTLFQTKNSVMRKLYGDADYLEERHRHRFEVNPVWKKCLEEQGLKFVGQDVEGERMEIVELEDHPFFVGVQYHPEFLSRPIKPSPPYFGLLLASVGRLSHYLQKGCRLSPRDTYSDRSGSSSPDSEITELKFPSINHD
Conditions: see e.g. WO2020083975 (CTPS-IA), WO2020245664 (CTPS-IB); cited from earlier work.

For the molecule `CCOc1cncc(-c2ccc(NC(=O)C3(c4ccnc(NS(=O)(=O)C5CC5)n4)CCOCC3)nc2)n1` [CTPS-IA, 4-(2-(cyclopropanesulfonamido)pyrimidin-4-yl)-N-(5-(6-ethoxypyrazin-2-yl)pyridin-2-yl)tetrahydro-2H-pyran-4-carboxamide], the “Association of the level of CTPS1 expression with sensitivity to CTPS-IA” value in the test with human cancer cell lines was “not associated with sensitivity to CTPS-IA”. For the same molecule, on CTPS1, the “CTPS1 inhibition and selectivity (in words)” value was “potent and selective inhibitor of CTPS1”.

Turning to `CCOc1cncc(-c2ccc(NC(=O)C3(c4ccnc(NS(=O)(=O)CC)n4)CCOCC3)nc2)n1` [CTPS-IB, N-(5-(6-ethoxypyrazin-2-yl)pyridin-2-yl)-4-(2-(ethylsulfonamido)pyrimidin-4-yl)tetrahydro-2H-pyran-4-carboxamide], on CTPS1, the “CTPS1 inhibition and selectivity (in words)” value was “potent and selective inhibitor of CTPS1”.
